Test results from patent publication US20260167622A1, “PAN-KRAS DEGRADING AGENT, AND PREPARATION METHOD THEREFOR AND USE THEREOF” (LEADINGTAC PHARMACEUTICAL (SHAOXING) CO., LTD., priority 2022, published 2026).

Legend:
Type in all cases: cell-based
[1] = tested on: KRAS WT human gastric cancer cell MKN1; experiment: 3D cell proliferation inhibition assay, MKN1; conditions: MKN-1, 168 h, 3D culture, 7 days, CTG
Method in brief: (§1)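 Cells seeded in low-adsorption plates at 5×10^2 cells/well (MKN1 1×10^3) with compounds at final 10000–0.026 nM, 0.2% DMSO, 3D culture 7 days at 37 °C. Viability by CellTiter-Glo luminescence; inhibition normalised to DMSO and medium-only controls, IC50 from nonlinear log-concentration fit.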

[2] = tested on: KRAS G12C mutant human non-small cell lung cancer cell NCI-H358; experiment: 3D cell proliferation inhibition assay, NCI-H358; conditions: NCI-H358, 168 h, 3D culture, 7 days, CTG
Method in brief: as §1

[3] = molecular target: T1, KRAS G13D protein in DLD-1 cells (Homo sapiens, UniProt P01116, G13D); experiment: KRAS degradation assay (Western Blot) in DLD-1 cells; conditions: 24 h
T1 construct: endogenous in cells; host or cells: DLD-1
T1 sequence (P01116 1-188 isoform P01116-2 G13D): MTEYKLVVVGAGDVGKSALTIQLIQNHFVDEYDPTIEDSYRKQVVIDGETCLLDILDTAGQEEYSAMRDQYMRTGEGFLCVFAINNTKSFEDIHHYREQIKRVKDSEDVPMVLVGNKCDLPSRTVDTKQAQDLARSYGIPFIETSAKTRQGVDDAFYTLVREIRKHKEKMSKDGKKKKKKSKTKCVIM
Source text: (§2) Test Example 5: KRAS G12C, KRAS G12D, KRAS G12V, KRAS G13D, and KRAS WT (Expanded) Degradation Assays
(§3) The degradation effect of the compounds on KRAS was investigated on KRAS G12C mutant human non-small cell lung cancer cell NCI-H358, KRAS G12D mutant human metastatic pancreatic cancer cell AsPc-1, KRAS G12D mutant human lung cancer cell A427, KRAS G12V mutant human colorectal cancer cell SW620, KRAS G12V mutant human lung cancer cell SW900, KRAS G13D mutant human colorectal cancer epithelial cell DLD-1, and KRAS WT human gastric cancer cell MKN-1. The specific procedures were as follows: 0.95 mL of cells were seeded into each well of a 24-well cell culture plate to achieve a cell density of 5×10^5 cells/well; and the cell plate was incubated in an incubator at 37° C. with 5% CO2 overnight. Then 50 μL of the compound solution after dilution was added to each of the wells with the corresponding cells, so that the final concentration of the compound was in a range of 0.03-3000 nM. The final concentration of DMSO was 0.25%. After the compounds were added, the cell plate was incubated in an incubator at 37° C. with 5% CO2 for 24 h. The culture medium in the 24-well cell culture plate was then removed, and the plate was washed twice with 1×PBS (KeyGEN). 120 μL of RIPA (strong) lysis buffer (Beyotime) (supplemented with 1 mM phenylmethylsulfonyl fluoride, a protease inhibitor mixture (Beyotime), and a protease phosphatase inhibitor mixture (Beyotime)) was added to lyse adherent SW900 cells at the bottom of the cell culture plate. After the plate was left to stand on ice for 30 min, the protein lysate in each well was transferred to a 1.5 mL centrifuge tube and centrifuged at 15000 g for 20 min at 4° C. The cell lysate supernatants after centrifugation were cryopreserved in a refrigerator at −80° C. for later use.
(§4) After the samples of the cell lysate supernatants that had been prepared were thawed from the refrigerator at −80° C., the total protein concentrations of the cell lysates were determined using a BCA protein quantification kit (Tiangen). The total protein concentrations of the samples were then adjusted to 0.5 μg/μL with PBS and 5×SDS-PAGE protein loading buffer (Beyotime), and the samples were incubated in a water bath at 100° C. for 15 min. The samples were then incubated in an ice bath for 5 min and centrifuged at 14000 g for 1 min at 4° C., and the supernatants were mixed well as loading samples for the Western Blot assay. The samples were loaded into wells of a 10% precast gel (KeyGEN) with a loading volume of 10 μL (total protein: 5 μg), a sufficient Tris-MOPS-SDS running buffer (Adamas) was added, and then electrophoresis was performed at a constant voltage of 120 V for 55 min. After the electrophoresis, the proteins on the gel were transferred to PVDF membranes at a constant current of 250 mA for 55 min. After the membrane transfer, the PVDF membranes were incubated in 1× Quick Block blocking buffer (Beyotime)at room temperature for 30 min. After the blocking, the PVDF membranes were separately incubated at 4° C. overnight with the KRAS antibody (Abcam) diluted in a ratio of 1:1000 and the β-actin antibody (Abcam) diluted in a ratio of 1:2000 in 5% BSA as the diluent, and then washed with 1×TBST buffer (2.4 g of Tris, 8.8 g of NaCl, 1.5 mL of Tween 20, with pH adjusted to 7.4, with the volume brought to 1 L) 3 times for 10 min/time. The membranes were incubated with a secondary antibody (Abcam) diluted in 5% BSA at room temperature for 2 h, and then washed with 1×TBST buffer 3 times for 10 min/time. Finally, the membranes were incubated with Clarity Western ECL Substrate (BIO-RAD) for 5 min for luminescence and color development, and a ChemiScope 6200 Touch chemiluminescence imaging system (Clinx) was used for color development and protein mapping. Gray value analysis of the protein maps was performed using the chemiluminescence analysis software (Clinx). […]

[4] = molecular target: T2, KRAS WT (expanded) protein in MKN1 cells (Homo sapiens, UniProt P01116); experiment: KRAS degradation assay (Western Blot) in MKN1 cells; conditions: for DC50: 24 h; for Dmax: MKN-1, 24 h
T2 construct: endogenous in cells; host or cells: MKN1 (MKN-1)
T2 sequence (P01116 1-188 isoform P01116-2): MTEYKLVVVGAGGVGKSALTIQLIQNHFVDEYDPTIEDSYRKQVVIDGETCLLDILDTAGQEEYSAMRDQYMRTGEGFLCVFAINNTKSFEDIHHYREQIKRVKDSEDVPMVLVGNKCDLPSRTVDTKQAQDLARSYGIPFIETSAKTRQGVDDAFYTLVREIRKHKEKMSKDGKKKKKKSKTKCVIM
Source text: as §2, §3, §4

[5] = molecular target: T3, KRAS G12V protein in SW620 cells (Homo sapiens, UniProt P01116, G12V); experiment: KRAS degradation assay (Western Blot) in SW620 cells; conditions: for DC50: 24 h; for Dmax: SW-620, 24 h
T3 construct: endogenous in cells; host or cells: SW620
T3 sequence (P01116 1-188 isoform P01116-2 G12V): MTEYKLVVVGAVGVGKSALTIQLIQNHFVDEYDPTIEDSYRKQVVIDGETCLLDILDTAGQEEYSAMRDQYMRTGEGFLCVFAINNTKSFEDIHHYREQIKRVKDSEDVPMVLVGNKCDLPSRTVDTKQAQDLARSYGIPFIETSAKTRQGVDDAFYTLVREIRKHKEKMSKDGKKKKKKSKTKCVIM
Method in brief: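 Degradation of KRAS measured by Western blot after 24 h exposure to compound (0.03–3000 nM final). Values are DC50 and Dmax.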

[6] = molecular target: T4, KRAS G12C protein in NCI-H358 cells (Homo sapiens, UniProt P01116, G12C); experiment: KRAS degradation assay (Western Blot) in NCI-H358 cells; conditions: 24 h
T4 construct: endogenous in cells; host or cells: NCI-H358
T4 sequence (P01116 1-188 isoform P01116-2 G12C): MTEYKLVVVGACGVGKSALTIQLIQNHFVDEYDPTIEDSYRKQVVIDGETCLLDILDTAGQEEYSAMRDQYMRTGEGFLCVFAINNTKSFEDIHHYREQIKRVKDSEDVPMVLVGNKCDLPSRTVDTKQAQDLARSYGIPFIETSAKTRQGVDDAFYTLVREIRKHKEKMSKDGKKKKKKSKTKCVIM
Source text: as §2, §3, §4

[7] = tested on: KRAS G12V mutant human colorectal cancer cell SW620; experiment: 3D cell proliferation inhibition assay, SW620; conditions: SW-620, 168 h, 3D culture, 7 days, CTG
Method in brief: as §1

[8] = tested on: KRAS G12D mutant human metastatic pancreatic cancer cell AsPc-1; experiment: 3D cell proliferation inhibition assay, AsPc-1; conditions: ASPC1, 168 h, 3D culture, 7 days, CTG
Method in brief: as §1

[9] = tested on: KRAS G13D mutant human colorectal cancer epithelial cell DLD-1; experiment: 3D cell proliferation inhibition assay, DLD-1; conditions: DLD-1, 168 h, 3D culture, 7 days, CTG
Method in brief: as §1

[10] = molecular target: T5, KRAS G12D protein in AsPc-1 cells (Homo sapiens, UniProt P01116, G12D); experiment: KRAS degradation assay (Western Blot) in AsPc-1 cells; conditions: for DC50: 24 h; for Dmax: ASPC1, 24 h
T5 construct: endogenous in cells; host or cells: AsPc-1
T5 sequence (P01116 1-188 isoform P01116-2 G12D): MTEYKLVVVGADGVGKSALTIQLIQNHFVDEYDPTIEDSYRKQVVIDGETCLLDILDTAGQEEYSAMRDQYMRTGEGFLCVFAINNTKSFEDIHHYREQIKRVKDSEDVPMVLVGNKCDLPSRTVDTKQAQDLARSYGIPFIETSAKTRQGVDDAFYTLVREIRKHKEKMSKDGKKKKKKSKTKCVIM
Source text: as §2, §3, §4

| Structure (SMILES) | IC50 [1] [nM] | IC50 [2] [nM] | DC50 [3] [nM] | Dmax [3] [%] | DC50 [4] [nM] | Dmax [4] [%] | DC50 [5] [nM] | Dmax [5] [%] | DC50 [6] [nM] | Dmax [6] [%] | IC50 [7] [nM] | IC50 [8] [nM] | IC50 [9] [nM] | DC50 [10] [nM] | Dmax [10] [%] |
| --- | --- | --- | --- | --- | --- | --- | --- | --- | --- | --- | --- | --- | --- | --- | --- |
| C#Cc1c(F)ccc2cc(O)cc(-c3ncc4c(N5CCC[C@@](C)(O)C5)nc(OC[C@H](C)CN5CCN(CC6CCC7(CC6)CCN(C(=O)c6ccc(Cl)c(N8CCC(=O)NC8=O)c6)CC7)CC5)nc4c3F)c12 [Example 48, 1-(2-chloro-5-(9-((4-((R)-3-((7-(8-ethynyl-7-fluoro-3-hydroxynaphthalen-1-yl)-8-fluoro-4-((R)-3-hydroxy-3-methylpiperidin-1-yl)pyrido[4,3-d]pyrimidin-2-yl)oxy)-2-methylpropyl)piperazin-1-yl)methyl)-3-azaspiro[5.5]undecane-3-carbonyl)phenyl)dihydropyrimidine-2,4(1H,3H)-dione] | 21.2 | 85.5 | 1.34 | 100 | 2.33 | 100 | 1.02 | 100 | 17.2 | 100 | 5.17 | 23.2 | 2.61 |  |  |
| C#Cc1c(F)ccc2cc(O)cc(-c3ncc4c(N(C)[C@H]5C[C@@H]5F)nc(OC[C@H](C)CN5CCN(CC6CCC7(CC6)CCN(C(=O)c6ccc(OC)c(N8CCC(=O)NC8=O)c6)CC7)CC5)nc4c3F)c12 [Example 50, 1-(5-(9-((4-((R)-3-((7-(8-ethynyl-7-fluoro-3-hydroxynaphthalen-1-yl)-8-fluoro-4-(((1S,2S)-2-fluorocyclopropyl)(methyl)amino)pyrido[4,3-d]pyrimidin-2-yl)oxy)-2-methylpropyl)piperazin-1-yl)methyl)-3-azaspiro[5.5]undecane-3-carbonyl)-2-methoxyphenyl)dihydropyrimidine-2,4(1H,3H)-dione] | 23.7 | 46.7 | 3.98 | 98 |  |  | 3.22 | 99.4 | 21.6 | 96.3 | 3.73 | 157 | 90.9 | 167 | 77.1 |
| C#Cc1c(F)ccc2cc(O)cc(-c3ncc4c(N5CCC[C@@](C)(O)C5)nc(OCC5(CN6CCN(CC7CCC8(CC7)CCN(C(=O)c7ccc(CC)c(N9CCC(=O)NC9=O)c7)CC8)CC6)CC5)nc4c3F)c12 [Example 92, (R)-1-(2-ethyl-5-(9-((4-((1-(((7-(8-ethynyl-7-fluoro-3-hydroxynaphthalen-1-yl)-8-fluoro-4-(3-hydroxy-3-methylpiperidin-1-yl)pyrido[4,3-d]pyrimidin-2-yl)oxy)methyl)cyclopropyl)methyl)piperazin-1-yl)methyl)-3-azaspiro[5.5]undecane-3-carbonyl)phenyl)dihydropyrimidine-2,4(1H,3H)-dione] | 447 | 19.3 |  |  | 0.42 | 99 | 1.34 | 100 |  |  | 1.31 | 6.75 | 2.26 |  |  |

Now those with a lower IC50 [1], led by results:

| IC50 [1] [nM] | IC50 [2] [nM] | DC50 [3] [nM] | Dmax [3] [%] | DC50 [4] [nM] | Dmax [4] [%] | DC50 [5] [nM] | Dmax [5] [%] | DC50 [6] [nM] | Dmax [6] [%] | IC50 [7] [nM] | IC50 [8] [nM] | IC50 [9] [nM] | DC50 [10] [nM] | Dmax [10] [%] | Structure (SMILES) |
| --- | --- | --- | --- | --- | --- | --- | --- | --- | --- | --- | --- | --- | --- | --- | --- |
| 4.31 | 6.2 | 5.6 | 100 |  |  | 2.42 | 100 | 1.37 | 100 | 0.43 | 9.75 | 7.7 | 25.2 | 95.3 | [2H]C([2H])([2H])c1ccc(C(=O)N2CCC3(CCC(CN4CCN(C[C@@H](C)COc5nc(N6CCC[C@@](C)(O)C6)c6cnc(-c7cc(O)cc8ccc(F)c(C#C)c78)c(F)c6n5)CC4)CC3)CC2)cc1N1CCC(=O)NC1=O [Example 132, 1-(5-(9-((4-((R)-3-((7-(8-ethynyl-7-fluoro-3-hydroxynaphthalen-1-yl)-8-fluoro-4-((R)-3-hydroxy-3-methylpiperidin-1-yl)pyrido[4,3-d]pyrimidin-2-yl)oxy)-2-methylpropyl)piperazin-1-yl)methyl)-3-azaspiro[5.5]undecane-3-carbonyl)-2-(methyl-d3)phenyl)dihydropyrimidine-2,4(1H,3H)-dione] |
| 2.15 | 2.5 | 6.78 | 99.3 | 0.69 | 99.9 | 1.65 | 100 |  |  | 1.12 | 4.68 | 5.88 |  |  | [2H]C([2H])([2H])c1ccc(C(=O)N2CCC3(CCC(CN4CCN(CC5(COc6nc(N7CCC[C@@](C)(O)C7)c7cnc(-c8cc(O)cc9ccc(F)c(C#C)c89)c(F)c7n6)CC5)CC4)CC3)CC2)cc1N1CCC(=O)NC1=O [Example 111, (R)-1-(5-(9-((4-((1-(((7-(8-ethynyl-7-fluoro-3-hydroxynaphthalen-1-yl)-8-fluoro-4-(3-hydroxy-3-methylpiperidin-1-yl)pyrido[4,3-d]pyrimidin-2-yl)oxy)methyl)cyclopropyl)methyl)piperazin-1-yl)methyl)-3-azaspiro[5.5]undecane-3-carbonyl)-2-(methyl-d3)phenyl)dihydropyrimidine-2,4(1H,3H)-dione] |
| 2.01 | 18.2 | 2.36 | 100 | 1.26 | 100 | 0.87 | 100 | 3.14 | 86.7 | 2.81 | 9.03 | 5.49 |  |  | C#Cc1c(F)ccc2cc(O)cc(-c3ncc4c(N5CCC[C@@](C)(O)C5)nc(OC[C@H](C)CN5CCN(CC6CCC7(CC6)CCN(C(=O)c6ccc(OC)c(N8CCC(=O)NC8=O)c6)CC7)CC5)nc4c3F)c12 [Example 46, 1-(5-(9-((4-((R)-3-((7-(8-ethynyl-7-fluoro-3-hydroxynaphthalen-1-yl)-8-fluoro-4-((R)-3-hydroxy-3-methylpiperidin-1-yl)pyrido[4,3-d]pyrimidin-2-yl)oxy)-2-methylpropyl)piperazin-1-yl)methyl)-3-azaspiro[5.5]undecane-3-carbonyl)-2-methoxyphenyl)dihydropyrimidine-2,4(1H,3H)-dione] |
